The target of test [1] is Receptor tyrosine-protein kinase erbB-4 (Homo sapiens) (UniProt Q15303). Description: Residual activity of ERBB4 at 1 uM by microplate scintillation counting.
Test [2] has as its target Tyrosine-protein kinase FRK (Homo sapiens) (UniProt P42685). As to the kind of experiment: Residual activity of FRK at 1 uM by microplate scintillation counting.
For test [3], the target named is Serine/threonine-protein kinase pim-1 (Homo sapiens) (UniProt P11309). Description: Residual activity of PIM1 at 1 uM by microplate scintillation counting.
Sequence of Serine/threonine-protein kinase pim-1 (Homo sapiens) (P11309 whole entry, looked up): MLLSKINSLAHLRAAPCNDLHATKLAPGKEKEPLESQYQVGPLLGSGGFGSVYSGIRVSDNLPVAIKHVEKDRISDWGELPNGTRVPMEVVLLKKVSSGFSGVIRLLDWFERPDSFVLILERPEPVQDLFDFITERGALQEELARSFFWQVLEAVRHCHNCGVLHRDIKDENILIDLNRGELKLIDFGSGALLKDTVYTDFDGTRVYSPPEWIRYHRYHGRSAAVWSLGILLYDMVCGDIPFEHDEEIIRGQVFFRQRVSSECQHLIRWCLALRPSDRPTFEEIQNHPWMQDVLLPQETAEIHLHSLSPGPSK
Test [4] concerns the target T1, Protein kinase C epsilon type (Homo sapiens) (UniProt Q02156).
T1 sequence (whole entry): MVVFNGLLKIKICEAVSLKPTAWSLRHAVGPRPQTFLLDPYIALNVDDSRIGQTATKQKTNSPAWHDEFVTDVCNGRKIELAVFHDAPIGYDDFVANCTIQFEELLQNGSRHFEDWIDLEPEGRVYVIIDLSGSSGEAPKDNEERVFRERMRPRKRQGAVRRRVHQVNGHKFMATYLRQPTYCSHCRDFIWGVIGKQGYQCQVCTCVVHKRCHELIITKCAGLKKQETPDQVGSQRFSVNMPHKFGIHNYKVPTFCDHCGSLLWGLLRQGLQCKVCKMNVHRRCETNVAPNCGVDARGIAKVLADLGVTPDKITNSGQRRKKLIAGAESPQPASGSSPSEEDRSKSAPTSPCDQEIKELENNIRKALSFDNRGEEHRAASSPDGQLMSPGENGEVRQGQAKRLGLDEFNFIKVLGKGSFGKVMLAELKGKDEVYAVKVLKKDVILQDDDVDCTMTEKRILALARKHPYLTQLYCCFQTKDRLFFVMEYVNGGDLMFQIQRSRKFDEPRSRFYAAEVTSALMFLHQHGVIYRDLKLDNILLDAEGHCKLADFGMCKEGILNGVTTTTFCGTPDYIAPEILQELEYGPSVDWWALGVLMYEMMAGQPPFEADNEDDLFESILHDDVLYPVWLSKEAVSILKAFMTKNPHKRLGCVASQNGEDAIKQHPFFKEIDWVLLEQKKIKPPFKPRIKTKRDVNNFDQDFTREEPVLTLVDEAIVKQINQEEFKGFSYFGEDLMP
As to the kind of experiment: Residual activity of PKCepsilon at 1 uM by microplate scintillation counting.

Test [5] has as its target Tyrosine-protein kinase Lyn (Homo sapiens) (UniProt P07948). As to the kind of experiment: Residual activity of LYN at 0.1 uM by microplate scintillation counting.
The target of test [6] is Serine/threonine-protein kinase MARK1 (Homo sapiens) (UniProt Q9P0L2). Description: Residual activity of MARK1 at 1 uM by microplate scintillation counting.
The target of test [7] is Epidermal growth factor receptor (Homo sapiens, UniProt P00533). As to the kind of experiment: Residual activity of wild type EGF-R at 10 uM by microplate scintillation counting.
Sequence of Epidermal growth factor receptor (P00533 whole entry): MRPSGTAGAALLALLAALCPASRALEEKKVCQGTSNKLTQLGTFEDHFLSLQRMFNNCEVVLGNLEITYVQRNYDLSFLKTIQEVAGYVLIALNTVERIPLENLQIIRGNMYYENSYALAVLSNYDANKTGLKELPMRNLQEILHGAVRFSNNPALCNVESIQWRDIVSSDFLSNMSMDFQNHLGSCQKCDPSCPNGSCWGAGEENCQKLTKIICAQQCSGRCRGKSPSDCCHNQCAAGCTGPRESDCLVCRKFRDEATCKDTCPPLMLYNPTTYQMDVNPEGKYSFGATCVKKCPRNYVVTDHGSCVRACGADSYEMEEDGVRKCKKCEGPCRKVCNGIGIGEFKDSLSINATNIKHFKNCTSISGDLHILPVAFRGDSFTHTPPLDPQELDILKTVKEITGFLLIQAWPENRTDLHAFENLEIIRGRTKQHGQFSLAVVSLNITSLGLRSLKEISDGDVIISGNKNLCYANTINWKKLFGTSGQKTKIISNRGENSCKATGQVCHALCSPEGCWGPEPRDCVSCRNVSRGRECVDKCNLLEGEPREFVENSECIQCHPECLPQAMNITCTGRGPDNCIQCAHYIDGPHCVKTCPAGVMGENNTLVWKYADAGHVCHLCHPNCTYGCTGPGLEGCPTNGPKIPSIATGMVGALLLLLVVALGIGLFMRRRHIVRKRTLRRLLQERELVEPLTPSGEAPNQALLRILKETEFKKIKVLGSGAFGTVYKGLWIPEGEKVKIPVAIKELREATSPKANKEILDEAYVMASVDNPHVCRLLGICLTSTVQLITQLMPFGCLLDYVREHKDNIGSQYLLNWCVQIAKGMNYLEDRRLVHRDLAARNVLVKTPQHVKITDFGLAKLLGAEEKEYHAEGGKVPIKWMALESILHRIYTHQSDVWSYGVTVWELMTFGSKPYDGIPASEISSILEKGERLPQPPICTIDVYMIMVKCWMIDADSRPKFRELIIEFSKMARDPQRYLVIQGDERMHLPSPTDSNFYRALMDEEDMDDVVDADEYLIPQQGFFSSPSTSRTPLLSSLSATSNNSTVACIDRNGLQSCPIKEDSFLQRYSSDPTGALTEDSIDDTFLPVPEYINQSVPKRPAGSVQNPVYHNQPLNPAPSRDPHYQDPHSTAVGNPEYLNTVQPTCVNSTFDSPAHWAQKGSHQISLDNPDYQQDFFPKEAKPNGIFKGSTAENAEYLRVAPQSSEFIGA
Test [8] addresses Ephrin type-A receptor 2 (Homo sapiens) (UniProt P29317). Description: Residual activity of EPHA2 at 10 uM by microplate scintillation counting.
The target in test [9] is RAC-beta serine/threonine-protein kinase (Homo sapiens) (UniProt P31751). Description: Residual activity of AKT2 at 10 uM by microplate scintillation counting.
Sequence of RAC-beta serine/threonine-protein kinase (Homo sapiens) (P31751 whole entry): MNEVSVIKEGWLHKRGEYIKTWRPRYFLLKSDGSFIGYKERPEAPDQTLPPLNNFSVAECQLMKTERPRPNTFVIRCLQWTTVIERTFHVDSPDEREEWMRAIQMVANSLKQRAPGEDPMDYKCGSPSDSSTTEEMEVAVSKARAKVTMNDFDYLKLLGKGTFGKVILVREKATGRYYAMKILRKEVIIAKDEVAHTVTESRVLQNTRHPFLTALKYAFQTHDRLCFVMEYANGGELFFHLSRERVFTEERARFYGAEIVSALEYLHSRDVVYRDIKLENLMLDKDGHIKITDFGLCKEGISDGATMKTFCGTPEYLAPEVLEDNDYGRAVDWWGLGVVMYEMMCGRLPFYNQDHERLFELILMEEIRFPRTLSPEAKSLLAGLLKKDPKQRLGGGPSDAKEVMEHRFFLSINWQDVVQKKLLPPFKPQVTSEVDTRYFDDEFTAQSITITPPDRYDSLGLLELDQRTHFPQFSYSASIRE
For test [10], the target named is T2, G protein-coupled receptor kinase 3 (Homo sapiens) (UniProt P35626).
T2 sequence (whole entry): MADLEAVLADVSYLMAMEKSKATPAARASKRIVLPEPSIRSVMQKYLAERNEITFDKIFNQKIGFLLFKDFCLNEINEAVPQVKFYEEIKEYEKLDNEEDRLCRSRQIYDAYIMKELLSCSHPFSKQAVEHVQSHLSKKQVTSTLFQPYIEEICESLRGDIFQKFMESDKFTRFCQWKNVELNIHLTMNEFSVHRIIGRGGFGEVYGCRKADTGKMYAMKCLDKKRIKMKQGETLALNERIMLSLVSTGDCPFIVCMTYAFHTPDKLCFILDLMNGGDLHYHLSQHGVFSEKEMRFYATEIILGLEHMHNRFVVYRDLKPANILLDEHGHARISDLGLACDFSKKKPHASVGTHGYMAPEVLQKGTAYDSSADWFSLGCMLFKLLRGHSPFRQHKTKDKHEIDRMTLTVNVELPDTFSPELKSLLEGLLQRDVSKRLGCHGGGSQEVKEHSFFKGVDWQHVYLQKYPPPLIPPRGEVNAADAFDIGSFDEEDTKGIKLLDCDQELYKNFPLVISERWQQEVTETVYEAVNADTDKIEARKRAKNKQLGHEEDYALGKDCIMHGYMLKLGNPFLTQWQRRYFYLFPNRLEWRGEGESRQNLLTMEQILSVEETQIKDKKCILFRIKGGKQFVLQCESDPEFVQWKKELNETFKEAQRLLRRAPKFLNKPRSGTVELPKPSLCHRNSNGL
As to the kind of experiment: Residual activity of GRK3 at 10 uM by microplate scintillation counting.

For test [11], the target named is Tyrosine-protein kinase Yes (Homo sapiens) (UniProt P07947). As to the kind of experiment: Residual activity of YES at 0.1 uM by microplate scintillation counting.
Test [12] deals with Serine/threonine-protein kinase 26 (Homo sapiens) (UniProt Q9P289). Description: Residual activity of MST4 at 10 uM by microplate scintillation counting.
Sequence of Serine/threonine-protein kinase 26 (Homo sapiens) (Q9P289 2-416 limits assumed): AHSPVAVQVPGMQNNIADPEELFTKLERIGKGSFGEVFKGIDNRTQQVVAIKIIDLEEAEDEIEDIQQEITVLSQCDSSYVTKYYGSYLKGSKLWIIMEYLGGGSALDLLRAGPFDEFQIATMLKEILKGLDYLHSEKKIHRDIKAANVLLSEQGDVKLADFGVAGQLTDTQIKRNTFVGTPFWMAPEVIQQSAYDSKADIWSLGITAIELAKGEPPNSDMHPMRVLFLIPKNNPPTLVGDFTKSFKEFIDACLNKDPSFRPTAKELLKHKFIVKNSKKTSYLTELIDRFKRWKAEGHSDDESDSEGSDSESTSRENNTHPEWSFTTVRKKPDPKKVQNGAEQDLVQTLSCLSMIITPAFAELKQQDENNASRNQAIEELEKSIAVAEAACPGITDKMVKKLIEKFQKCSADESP
Test [13] concerns the target Platelet-derived growth factor receptor beta (Homo sapiens, UniProt P09619). As to the kind of experiment: Residual activity of PDGFRbeta at 10 uM by microplate scintillation counting.
Test [14] deals with T1, Protein kinase C epsilon type (Homo sapiens). Description: Residual activity of PKCepsilon at 10 uM by microplate scintillation counting.
Test [15] concerns the target T3, Serine/threonine-protein kinase Nek3 (Homo sapiens) (UniProt P51956).
T3 sequence (whole entry): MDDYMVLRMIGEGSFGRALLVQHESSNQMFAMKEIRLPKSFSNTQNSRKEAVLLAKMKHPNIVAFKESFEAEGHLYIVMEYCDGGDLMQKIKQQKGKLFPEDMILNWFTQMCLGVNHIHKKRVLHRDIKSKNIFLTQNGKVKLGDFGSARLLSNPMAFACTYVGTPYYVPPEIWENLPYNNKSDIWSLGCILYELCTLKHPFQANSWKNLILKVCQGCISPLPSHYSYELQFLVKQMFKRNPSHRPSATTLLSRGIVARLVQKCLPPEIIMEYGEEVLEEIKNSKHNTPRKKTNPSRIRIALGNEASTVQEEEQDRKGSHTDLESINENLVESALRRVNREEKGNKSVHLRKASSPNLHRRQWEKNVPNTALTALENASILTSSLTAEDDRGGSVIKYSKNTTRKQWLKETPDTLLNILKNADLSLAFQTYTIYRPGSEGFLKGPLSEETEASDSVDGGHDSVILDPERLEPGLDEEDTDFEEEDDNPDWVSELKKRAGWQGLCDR
As to the kind of experiment: Residual activity of NEK3 at 0.1 uM by microplate scintillation counting.

In test [16] the target is Vascular endothelial growth factor receptor 3 (Homo sapiens, UniProt P35916). Description: Residual activity of VEGFR3 at 10 uM by microplate scintillation counting.

Sequence of Ephrin type-A receptor 2 (Homo sapiens) (P29317 whole entry): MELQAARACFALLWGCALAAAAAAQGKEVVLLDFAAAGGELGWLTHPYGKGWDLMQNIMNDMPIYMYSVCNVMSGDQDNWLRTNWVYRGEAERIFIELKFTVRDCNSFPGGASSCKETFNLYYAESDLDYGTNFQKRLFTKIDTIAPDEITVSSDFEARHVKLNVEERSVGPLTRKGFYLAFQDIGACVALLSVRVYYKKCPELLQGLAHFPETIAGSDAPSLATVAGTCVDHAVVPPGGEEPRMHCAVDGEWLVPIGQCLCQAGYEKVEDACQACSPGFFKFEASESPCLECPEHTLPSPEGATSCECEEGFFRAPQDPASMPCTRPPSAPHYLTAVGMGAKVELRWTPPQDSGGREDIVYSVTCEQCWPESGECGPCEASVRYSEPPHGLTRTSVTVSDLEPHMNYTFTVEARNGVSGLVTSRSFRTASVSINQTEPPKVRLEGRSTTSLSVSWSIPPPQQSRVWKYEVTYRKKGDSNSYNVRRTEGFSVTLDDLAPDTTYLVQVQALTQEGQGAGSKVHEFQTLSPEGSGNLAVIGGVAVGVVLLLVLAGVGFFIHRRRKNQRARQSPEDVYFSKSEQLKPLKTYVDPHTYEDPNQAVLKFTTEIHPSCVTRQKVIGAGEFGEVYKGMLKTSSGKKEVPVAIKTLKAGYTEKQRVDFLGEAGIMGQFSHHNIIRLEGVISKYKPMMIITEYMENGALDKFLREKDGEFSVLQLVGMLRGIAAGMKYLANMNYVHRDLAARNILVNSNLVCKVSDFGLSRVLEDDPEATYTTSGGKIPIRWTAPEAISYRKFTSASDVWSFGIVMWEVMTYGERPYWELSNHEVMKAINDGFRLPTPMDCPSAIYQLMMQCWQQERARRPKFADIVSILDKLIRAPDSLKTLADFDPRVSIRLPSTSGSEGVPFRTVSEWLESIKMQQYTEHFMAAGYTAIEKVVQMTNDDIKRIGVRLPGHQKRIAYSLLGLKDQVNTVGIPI
Sequence of Platelet-derived growth factor receptor beta (P09619 whole entry): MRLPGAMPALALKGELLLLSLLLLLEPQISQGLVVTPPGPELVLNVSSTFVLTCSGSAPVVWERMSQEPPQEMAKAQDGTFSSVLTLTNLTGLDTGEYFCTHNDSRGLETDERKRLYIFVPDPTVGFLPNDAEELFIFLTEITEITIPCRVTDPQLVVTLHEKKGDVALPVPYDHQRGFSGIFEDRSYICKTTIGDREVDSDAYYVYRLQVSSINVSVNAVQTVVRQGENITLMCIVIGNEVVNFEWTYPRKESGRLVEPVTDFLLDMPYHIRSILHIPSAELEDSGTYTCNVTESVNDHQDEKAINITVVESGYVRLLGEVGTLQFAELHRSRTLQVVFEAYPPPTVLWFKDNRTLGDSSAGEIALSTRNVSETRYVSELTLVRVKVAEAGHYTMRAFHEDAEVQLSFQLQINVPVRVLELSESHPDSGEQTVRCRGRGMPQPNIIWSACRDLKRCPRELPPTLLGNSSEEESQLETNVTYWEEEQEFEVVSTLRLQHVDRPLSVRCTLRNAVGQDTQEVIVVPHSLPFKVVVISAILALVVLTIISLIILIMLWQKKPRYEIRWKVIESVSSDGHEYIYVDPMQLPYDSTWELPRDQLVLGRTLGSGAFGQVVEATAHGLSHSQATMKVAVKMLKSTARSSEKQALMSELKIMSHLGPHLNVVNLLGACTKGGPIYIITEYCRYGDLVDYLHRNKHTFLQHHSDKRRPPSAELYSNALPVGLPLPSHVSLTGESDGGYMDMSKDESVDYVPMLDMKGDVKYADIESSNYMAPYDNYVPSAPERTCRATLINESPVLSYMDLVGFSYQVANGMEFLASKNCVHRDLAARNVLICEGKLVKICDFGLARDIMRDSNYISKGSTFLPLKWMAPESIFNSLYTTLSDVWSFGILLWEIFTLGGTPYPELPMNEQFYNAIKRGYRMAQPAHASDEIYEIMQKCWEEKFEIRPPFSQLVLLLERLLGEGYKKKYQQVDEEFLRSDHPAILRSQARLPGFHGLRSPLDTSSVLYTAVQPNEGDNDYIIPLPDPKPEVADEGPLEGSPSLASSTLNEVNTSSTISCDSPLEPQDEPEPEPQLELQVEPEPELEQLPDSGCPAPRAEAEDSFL
Sequence of Tyrosine-protein kinase FRK (Homo sapiens) (P42685 whole entry): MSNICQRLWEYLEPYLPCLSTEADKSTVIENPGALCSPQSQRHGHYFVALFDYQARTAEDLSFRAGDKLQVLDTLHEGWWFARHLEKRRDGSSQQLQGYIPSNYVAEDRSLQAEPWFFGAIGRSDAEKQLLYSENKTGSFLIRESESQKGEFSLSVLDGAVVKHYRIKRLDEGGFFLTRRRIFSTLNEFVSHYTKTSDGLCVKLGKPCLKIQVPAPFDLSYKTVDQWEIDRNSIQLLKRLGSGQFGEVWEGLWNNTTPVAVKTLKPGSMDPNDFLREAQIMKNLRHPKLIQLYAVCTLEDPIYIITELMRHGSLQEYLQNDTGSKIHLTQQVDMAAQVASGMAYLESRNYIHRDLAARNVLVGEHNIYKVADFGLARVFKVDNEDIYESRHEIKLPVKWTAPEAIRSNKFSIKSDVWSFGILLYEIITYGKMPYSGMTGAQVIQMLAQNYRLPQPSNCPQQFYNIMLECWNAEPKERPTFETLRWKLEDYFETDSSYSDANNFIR

As to `COc1cc2c(Oc3ccc(-c4nc5ccccc5s4)cc3)ncnc2cc1OCCCN1CCCC1`, the residual activity (commonly the signal under treatment as a percentage of the control signal) in test [1] worked out at 109%; in [2] it was 95%; in test [3] it was 104%; in test [4], 80%; in [5], 108%; in test [6], 86%. Also, the residual activity in test [7] worked out at 67%; in test [8], 187%; in test [9], 119%; in test [10], 110%; in test [11] it was 98%; in test [12], 85%. In addition, the residual activity in [13] was found to be 43%; in test [14], 142%; in test [15], 96%; in [16] it was 6%.

Turning to `COc1cc2c(Oc3ccc(-c4nc5ccccc5s4)cc3F)ncnc2cc1OCCCN1CCN(C)CC1`, the residual activity in [1] turned out to be 103%; in [2], 90%; in [3], 102%; in test [4], 90%; in [5], 102%; in test [6] it was 90%. For the same compound, the residual activity amounted to 48% in test [7]; 73% in [8]; 167% in [9]; 125% in test [10]; 80% in test [11]; 76% in test [12]. Also, the residual activity worked out at 33% in [13], 135% in [14], 93% in test [15] and 4% in test [16].

`COc1cc2c(Oc3ccc(-c4nc5ccccc5s4)cc3)ncnc2cc1OCCCN1CCN(C)CC1`: the residual activity was found to be 99% in test [1]; 84% in test [2]; 109% in test [3]; 94% in [4]; 112% in test [5]; 86% in test [6]. For the same compound, the residual activity was determined as 52% in [7]; 190% in test [8]; 175% in test [9]; 135% in test [10]; 93% in test [11]; 88% in test [12]. Also, the residual activity in [13] worked out at 21%; in [14], 128%; in test [15], 98%; in test [16], 4%.
